From ChEMBL document CHEMBL3751778, “Synthesis and biological evaluation of novel 7-O-lipophilic substituted baicalein derivatives as potential anticancer agents” (Medchemcomm, 2015)
The source made the active and inactive calls. No cut-off for these calls is given here.

How the values were obtained:
[1] = Antioxidant activity assessed as DPPH radical scavenging activity after 30 mins by ELISA reader analysis; type: physicochemical
[2] = Antioxidant activity assessed as ABTS radical scavenging activity after 6 mins by photometric analysis; type: physicochemical
SW480 [3] = assay: Antiproliferative activity against human SW480 cells after 48 hrs by MTT assay; type: functional, cell-based; settings: SW480, 48 h
[4] = Antiproliferative activity against human DLD1 cells after 48 hrs by MTT assay; type: functional, cell-based; settings: DLD-1, 48 h
[5] = Cytotoxicity against mouse BNL-CL2 cells after 48 hrs by MTT assay; type: cell-based; settings: BNL CL.2, 48 h
HT-29 [6] = assay: cells; settings: Homo sapiens, HT-29, 48 h
Description: Antiproliferative activity against human HT-29 cells after 48 hrs by MTT assay

HepG2 = assay: cells; settings: Homo sapiens, HepG2, 48 h
SW480 [7] = assay: Induction of apoptosis in human SW480 cells assessed as nuclear shrinkage at 20 uM after 48 hrs by Hoechst 33258 staining-based fluorescence microscopic analysis; type: functional, cell-based
SW480 [8] = assay: Induction of apoptosis in human SW480 cells assessed as chromatin condensation at 20 uM after 48 hrs by Hoechst 33258 staining-based fluorescence microscopic analysis; type: functional, cell-based
SW480 [9] = assay: Induction of apoptosis in human SW480 cells assessed as DNA fragmentation at 20 uM after 48 hrs by Hoechst 33258 staining-based fluorescence microscopic analysis; type: functional, cell-based
SW480 [10] = assay: Cell cycle arrest in human SW480 cells assessed as accumulation at G1 phase at 5 uM after 48 hrs by propidium iodide staining-based flow cytometric analysis (reference value: 65.24%); type: functional
SW480 [11] = assay: Cell cycle arrest in human SW480 cells assessed as accumulation at G1 phase at 10 uM after 48 hrs by propidium iodide staining-based flow cytometric analysis (reference value: 65.24%); type: functional
SW480 [12] = assay: Cell cycle arrest in human SW480 cells assessed as accumulation at G1 phase at 20 uM after 48 hrs by propidium iodide staining-based flow cytometric analysis (reference value: 65.24%); type: functional
SW480 [13] = assay: Cell cycle arrest in human SW480 cells assessed as accumulation at S phase at 5 uM after 48 hrs by propidium iodide staining-based flow cytometric analysis (reference value: 26.19%); type: functional
SW480 [14] = assay: Cell cycle arrest in human SW480 cells assessed as accumulation at S phase at 10 uM after 48 hrs by propidium iodide staining-based flow cytometric analysis (reference value: 26.19%); type: functional
SW480 [15] = assay: Cell cycle arrest in human SW480 cells assessed as accumulation at S phase at 20 uM after 48 hrs by propidium iodide staining-based flow cytometric analysis (reference value: 26.19%); type: functional
SW480 [16] = assay: Cell cycle arrest in human SW480 cells assessed as accumulation at G2/M phase at 5 uM after 48 hrs by propidium iodide staining-based flow cytometric analysis (reference value: 8.57%); type: functional
SW480 [17] = assay: Cell cycle arrest in human SW480 cells assessed as accumulation at G2/M phase at 10 uM after 48 hrs by propidium iodide staining-based flow cytometric analysis (reference value: 8.57%); type: functional
SW480 [18] = assay: Cell cycle arrest in human SW480 cells assessed as accumulation at G2/M phase at 20 uM after 48 hrs by propidium iodide staining-based flow cytometric analysis (reference value: 8.57%); type: functional
SW480 [19] = assay: Cell cycle arrest in human SW480 cells assessed as accumulation at S phase at 50 uM after 48 hrs by propidium iodide staining-based flow cytometric analysis; type: functional
SW480 [20] = assay: Induction of apoptosis in human SW480 cells assessed as early apoptotic cells after 48 hrs by annexin V-FITC/propidium iodide staining-based flow cytometric analysis; type: functional, cell-based
SW480 [21] = assay: Induction of apoptosis in human SW480 cells assessed as early apoptotic cells at 20 uM after 48 hrs by annexin V-FITC/propidium iodide staining-based flow cytometric analysis; type: functional, cell-based
SW480 [22] = assay: Induction of ROS generation in human SW480 cells assessed as superoxide anion level at 5 uM after 48 hrs by DHE staining-based fluorescence assay (reference value: 101.21); type: functional
SW480 [23] = assay: Induction of ROS generation in human SW480 cells assessed as superoxide anion level at 10 uM after 48 hrs by DHE staining-based fluorescence assay (reference value: 101.21 No_Unit); type: functional
SW480 [24] = assay: Induction of ROS generation in human SW480 cells assessed as superoxide anion level at 20 uM after 48 hrs by DHE staining-based fluorescence assay (reference value: 101.21 No_Unit); type: functional
SW480 [25] = assay: Induction of ROS generation in human SW480 cells after 48 hrs by DHE staining-based fluorescence assay; type: functional, cell-based
SW480 [26] = assay: Antiproliferative activity against human SW480 cells after 24 hrs by MTT assay; type: functional, cell-based; settings: SW480, 24 h
SW480 [27] = assay: Antiproliferative activity against human SW480 cells after 72 hrs by MTT assay; type: functional, cell-based; settings: SW480, 72 h
HT-29 [28] = assay: Antiproliferative activity against human HT-29 cells after 24 hrs by MTT assay; type: functional, cell-based; settings: HT-29, 24 h
HT-29 [29] = assay: Antiproliferative activity against human HT-29 cells after 72 hrs by MTT assay; type: functional, cell-based; settings: HT-29, 72 h
[30] = Antiproliferative activity against human DLD1 cells after 24 hrs by MTT assay; type: functional, cell-based; settings: DLD-1, 24 h
[31] = Antiproliferative activity against human DLD1 cells after 72 hrs by MTT assay; type: functional, cell-based; settings: DLD-1, 72 h
SW480 [32] = assay: Induction of apoptosis in human SW480 cells assessed as late apoptotic cells at 20 uM after 48 hrs by annexin V-FITC/propidium iodide staining-based flow cytometric analysis; type: functional, cell-based

Work on COc1cc2oc(-c3ccccc3)cc(=O)c2c(O)c1O yielded an IC50 [1] of 28.4 µM, an IC50 [2] of 20.2 µM and an IC50 (SW480 [3]) of 29.4 µM. For the same compound, the IC50 [4] was 30.9 µM, the IC50 [5] was greater than 40 µM and the IC50 (HT-29 [6]) was greater than 40 µM. It also gave an IC50 (HepG2) greater than 40 µM.

CC(C)=CCC/C(C)=C/CC/C(C)=C/COc1cc(O)c2c(=O)cc(-c3ccccc3)oc2c1 gave an IC50 (SW480 [3]) greater than 20 µM, an IC50 [4] greater than 20 µM and an IC50 [5] greater than 20 µM. The IC50 (HT-29 [6]) was greater than 20 µM and the IC50 (HepG2) was greater than 20 µM.

Compound Cc1c(C)c2c(c(C)c1O)CCC(C)(C(=O)O)O2 (stereo not drawn) [TROLOX] has an IC50 [1] of 22.7 µM and an IC50 [2] of 16.8 µM.

Compound O=c1cc(-c2ccccc2)oc2cc(O)cc(O)c12 [CHRYSIN] has an IC50 (SW480 [3]) of 31.1 µM, an IC50 [4] of 18.6 µM and an IC50 [5] greater than 40 µM. It also gave an IC50 (HT-29 [6]) of 19.5 µM and an IC50 (HepG2) of 16.5 µM.

CC(C)=CCC/C(C)=C/COc1cc2oc(-c3ccccc3)cc(=O)c2c(O)c1O gave an IC50 [1] of 24.3 µM, an IC50 [2] of 20.4 µM and an IC50 (SW480 [3]) of 2.84 µM. The IC50 [4] was 9.77 µM, the IC50 [5] was greater than 20 µM and the IC50 (HT-29 [6]) was 17 µM. The IC50 (HepG2) was greater than 20 µM.

In the case of COc1cc(O)c2c(=O)cc(-c3ccccc3)oc2c1 [TECHTOCHRYSIN], the IC50 (SW480 [3]) is reported as greater than 20 µM, the IC50 [4] is reported as greater than 20 µM and the IC50 [5] is reported as greater than 20 µM. For the same compound, the IC50 (HT-29 [6]) was greater than 20 µM and the IC50 (HepG2) was greater than 20 µM.

Work on CC(C)=CCC/C(C)=C/COc1cc(O)c2c(=O)cc(-c3ccccc3)oc2c1 yielded an IC50 (SW480 [3]) greater than 20 µM, an IC50 [4] greater than 20 µM and an IC50 [5] greater than 20 µM. The IC50 (HT-29 [6]) was greater than 20 µM and the IC50 (HepG2) was greater than 20 µM.

O=c1cc(-c2ccccc2)oc2cc(O)c(O)c(O)c12 [BAICALEIN] showed an IC50 [1] of 17.2 µM, an IC50 [2] of 15.5 µM and an IC50 (SW480 [3]) of 14.1 µM. For the same compound, the IC50 [4] was 27.9 µM, the IC50 [5] was greater than 40 µM and the Activity (SW480 [7]) was “Active”. The Activity (SW480 [8]) was “Active”, the Activity (SW480 [9]) was “Active” and the Activity (SW480 [10]) was 63.64%. For the same compound, the Activity (SW480 [11]) was 64.29%, the Activity (SW480 [12]) was 64.54% and the Activity (SW480 [13]) was 28.61%. For the same compound, the Activity (SW480 [14]) was 28.65%, the Activity (SW480 [15]) was 27.51% and the Activity (SW480 [16]) was 7.75%. The Activity (SW480 [17]) was 7.05%, the Activity (SW480 [18]) was 7.95% and the Activity (SW480 [19]) was “Active”. The Activity (SW480 [20]) was “inactive”, the Activity (SW480 [21]) was “Active” and the Flu intensity (SW480 [22]) was 104.84. For the same compound, the Flu intensity (SW480 [23]) was 99.49, the Flu intensity (SW480 [24]) was 98.79 and the Activity (SW480 [25]) was “Dose-dependent effect”. The IC50 (SW480 [26]) was 16.9 µM, the IC50 (SW480 [27]) was 11.6 µM and the IC50 (HT-29 [28]) was greater than 20 µM. The IC50 (HT-29 [29]) was 18.4 µM, the IC50 [30] was greater than 20 µM and the IC50 [31] was greater than 20 µM. The Activity (SW480 [32]) was “Active” and the IC50 (HT-29 [6]) was 18.1 µM.
